Test results published in patent US20210283087A1, “METHOD FOR TREATING AND RELIEVING MYOPIA” (China Medical University, priority 2014, published 2021).

Key:
MMP2 = experiment: Gelatin zymography of MMP2 activity in LPS-activated scleral fibroblasts and ARPE-19 cells; type: cell-based; conditions: LPS + 100 μM atropine or LPS + 50 μM diacerein; 48 hours
Procedure: To facilitate subsequent analysis, 1×10^6 cells were seeded in 24-well plates for at least 12 hours. […] To measure the MMP-2/MMP-9 activities, samples were separated using 8% SDS-PAGE containing 0.1% gelatin.

[1] = test system: monocular form deprivation (MFD) Syrian hamster; experiment: Refractive power in monocular form deprivation (MFD) hamster model, streak retinoscope; type: in vivo, golden Syrian hamsters; conditions: for Myopia in the non-MFD eye: LPS and PGN but not PBS treatment; for Refractive power, BL: left eye before MFD / Refractive power, BR: right eye before MFD: LPS or PGN group, baseline; for Refractive error FR-BR / Refractive error FL-BL: LPS or PGN; for Refractive error FR-BR: MFD right eye; for Refractive error FL-BL: non-MFD left eye
Procedure: In this study, a total of 160 golden Syrian hamsters aged 3 weeks, weighing 80 to 90 g, and 20 albino guinea pigs, aged 2 to 3 weeks, were used for experiments. All animals were kept in a 12-hour light/dark cycle. All procedures were approved by the Institutional Animal Care and Use Committee of China Medical University and were conducted in accordance with the guidelines of the Use of Animals in Ophthalmic and Vision Research. Hamsters were raised with a right eyelid fusion for 21 days. Myopia was induced in the guinea pigs by covering the right eye with a cloth attached to the skin at a distance of at least 1 cm from the eye. MFD was induced in the right eye (with the left eye serving as a control) of animals randomly assigned to treatment or control groups (n=10 animals each) receiving daily applications of drug or phosphate-buffered saline (PBS), respectively, to both eyes.
(§1) The RE (i.e., spherical-component RE, which is defined as the mean RE in horizontal and vertical meridians) was measured using a hand-held streak retinoscope. Animals were anesthetized with 10% ether in O2. Ocular refraction was evaluated at the start and end of the experiment. At the end of the study, animals were sacrificed through CO2 asphyxiation according to the guidelines of the Public Health Service, Office of Laboratory Animal Welfare, National Institutes of Health, and American Association of Veterinary Medicine. Eyes were enucleated using a razor blade on an ice plate under a surgical microscope (Topcon, Tokyo, Japan) by cutting perpendicularly to the anterior-posterior axis approximately 1 mm posterior to the ora serrata. The iris and ciliary body of the anterior segment of the eye were separated. Posterior sclera was excised using a 7-mm-diameter trephine. The axial lengths were determined through A-scan ultrasonography (PacScan 300 Plus, NY, USA). The average of 10 unique measurements was used.

Retinal cell (R28) = experiment: Gene expression by real-time PCR in LPS-treated R28 retinal cells; type: cell-based, rat; conditions: R28; 100 ng/ml LPS for 4 hours
Procedure: (§2) R28 rat retinal epithelial cells were provided by Gail Seigel at the Ross Eye Institute (SUNY, Buffalo, N.Y., USA). The cells were cultured in Dulbecco's modified Eagle's medium (DMEM) with 10% fetal bovine serum (FBS) at 37° C. and 5% CO2, with medium replacement every 3 days to 4 days. Sclera were placed in a 60-mm culture dish in DMEM supplemented with 10% FBS to isolate primary scleral fibroblasts; those from fewer than three passages were used in experiments. […] Cell lysates were collected for quantitative (q)PCR to determine gene expression levels.
(§3) Total RNA was extracted using the RNeasy MiniKit (Qiagen, Valencia, Calif., USA), and 5 μg of RNA was reverse-transcribed to cDNA by using the Superscript First Strand Synthesis system (Invitrogen, Carlsbad, Calif., USA). Primers and probes used for qPCR were selected from the Universal Probes Library (Roche, West Sussex, UK). Transcript levels were normalized to those of glyceraldehyde 3-phosphate dehydrogenase in each sample.

Sclera fibroblast = experiment: Gene expression by real-time PCR in LPS-treated primary scleral fibroblasts; type: cell-based, hamster; conditions: sclera fibroblast; 100 ng/ml LPS for 4 hours
Procedure: as §2, §3

[2] = test system: sclera and retina of hamster eyes; experiment: Immunohistochemistry of hamster eyes (sclera, retina); type: in vivo; conditions: for c-Fos and NF-κB expression / MMP2 and TGF-β expression / TGF-β and MMP2 expression: LPS or PGN; for IL-10 and TNF-α levels: LPS or PGN treatment; for MMP2 and TGF-β expression: MFD hamsters; for TGF-β and MMP2 expression: hamsters without MFD
Procedure: (§4) Antigen retrieval was performed by boiling the slides in citrate buffer (pH 6.0); the sections were then stained with antibodies against IL-6, TNF-α, TGF-β, MMP2, c-Fos, NF-κB, and CHRM1 and 3. The EnVision System peroxidase kit (DAKO, Carpentaria, Calif., USA) was used to visualize immunoreactivity.

Syrian hamster = experiment: Refractive power of hamsters without MFD after LPS or PGN; type: in vivo; conditions: for Refractive power, BL: left eye before treatment / Refractive power, BR: right eye before treatment: LPS or PGN group, baseline; for Refractive power, FL: left eye after treatment / Refractive power, FR: right eye after treatment / Refractive error FL-BL / Refractive error FR-BR: LPS or PGN; for Refractive power, FL: left eye after treatment / Refractive power, FR: right eye after treatment: 21 days; for Refractive error FL-BL: left eye; for Refractive error FR-BR: right eye
Procedure: as §1
To further test this possibility, LPS and PGN were applied to the eyes of hamsters without MFD.

[3] = test system: monocular form deprivation (MFD) Syrian hamster; experiment: Refractive power in monocular form deprivation (MFD) hamster model, streak retinoscope; type: in vivo, golden Syrian hamsters; conditions: LPS or 500 ng/mL PGN every second day for 21 days
[4] = test system: LEWIS rats, right eye induced myopia by FDM; experiment: Refractive error and axial length in FDM myopia LEWIS rats (diclofenac); type: in vivo
Procedure: Four weeks LEWIS rats were used in this example. […] The refractive error and axial length of right eye were measured by refractometer within three weeks and recorded in Table 14.

[5] = test system: Human retinal pigment epithelium; experiment: Western blot of phosphorylated Akt and ERK after LPS in human retinal pigment epithelium; type: cell-based; conditions: 50 μM resveratrol pretreatment, then 500 ng/ml LPS
Procedure: Human retinal pigment epithelium was administrated 500 ng/ml LPS for 30 minutes to observe the expression of Akt and ERK.

[6] = test system: sclera and retina of hamster eyes; experiment: Immunohistochemical analysis of COL1, TGF-β, TNF-α in resveratrol-treated hamster eyes; type: in vivo; conditions: 100 mM resveratrol
Procedure: as §4, with “[…] Antigen” for “Antigen”

[7] = test system: MFD-induced myopia in hamster; experiment: Effect of resveratrol on MFD-induced myopia in hamster (refractometer); type: in vivo; conditions: for Diopter, left eye (mean ± SD) / Diopter, right myopic eye (mean ± SD): 21 days
Procedure: 0.1141 g resveratrol (purchased from Sigma Aldrich Co.) powder was dissolved in 6 ml of ethanol to obtain resveratrol liquid. 1.46 g β-cyclodextrin (purchased from Sigma Aldrich Co.) was dissolved in 2 ml of sterile water to obtain a β-cyclodextrin solution (as a co-solvent); resveratrol liquid and β cyclodextrin were mixed in mole number of 1:2 by slowly adding dropwise β cyclodextrin solution into resveratrol liquid to form a mixture. The mixture was frozen drained, and then 5 ml artificial tears were added (purchased from Alcon company) to be re-dissolved to obtain 100 mM resveratrol solution. Resveratrol solution can be diluted by fetal bovine serum medium or artificial tears for various embodiments.
The refractive powers of hamsters were measured before experiment by refractometer (in China Medical University Hospital Department of Ophthalmology). The hamsters were administered artificial tears (referred to as control group) or various concentrations (3 mM, 30 mM, 100 mM) of resveratrol (experimental group) for five hamsters each group. The right eyes of the hamsters of each group were stitched; after 21 days, the stitches were all removed and then the refractive powers of each hamster were measured.

[8] = test system: monocyte chemoattractant protein-1 (MCP-1); experiment: LPS-induced MCP-1 expression in human retinal pigment epithelial cells; type: cell-based; conditions: 50 μM resveratrol and 1 μg/ml LPS for 24 hours
Procedure: Human retinal pigment epithelial cells were as model cells under LPS stimulation for 24 hours to induce inflammation and monocyte chemoattractant protein-1 (MCP-1), and then resveratrol was administered to detect the effect of suppressing inflammatory response.

[9] = 3 × diclofenac (3 mg/ml solution), right eye, three weeks, mean ± standard error

CC(=O)Oc1cccc2c1C(=O)c1c(OC(C)=O)cc(C(=O)O)cc1C2=O [diacerein]
MMP2 activities in cells activated by LPS (MMP2): decreased

lipopolysaccharide [LPS]
Myopia in the non-MFD eye [1]: induced
Refractive power, BL: left eye before MFD [1]: 11.92 ± 0.56 D
Refractive power, BR: right eye before MFD [1]: 12.30 ± 0.48 D
Refractive error FR-BR [1]: −5.9 ± 0.54 D
Refractive error FL-BL [1]: −4.13 ± 0.9 D
Chrm 1 gene expression level (Retinal cell (R28)): 1.39 ± 0.13
Chrm 2 gene expression level (Retinal cell (R28)): 0.45 ± 0.23
Chrm 3 gene expression level (Retinal cell (R28)): 1.27 ± 0.2
Chrm 4 gene expression level (Retinal cell (R28)): 0.94 ± 0.15
Chrm5 gene expression level (Retinal cell (R28)): 0.75 ± 0.21
Fos gene expression level (Retinal cell (R28)): 1.39 ± 0.11
IL1b gene expression level (Retinal cell (R28)): 4.3 ± 0.25
IL10 gene expression level (Retinal cell (R28)): 0.56 ± 0.19
IL-6 gene expression level (Retinal cell (R28)): 2.63 ± 0.15
MMP2 gene expression level (Retinal cell (R28)): 1.32 ± 0.13
NFkB gene expression level (Retinal cell (R28)): 1.13 ± 0.11
Tgfb1 gene expression level (Retinal cell (R28)): 1.18 ± 0.12
Tnfa gene expression level (Retinal cell (R28)): 1.56 ± 0.17
Chrm 1 gene expression level (Sclera fibroblast): 1.49 ± 0.18
Chrm 2 gene expression level (Sclera fibroblast): 1.48 ± 0.17
Chrm 3 gene expression level (Sclera fibroblast): 1.58 ± 0.15
Chrm 4 gene expression level (Sclera fibroblast): 1.07 ± 0.23
Chrm5 gene expression level (Sclera fibroblast): 0.93 ± 0.15
Fos gene expression level (Sclera fibroblast): 1.00 ± 0.11
IL1b gene expression level (Sclera fibroblast): 2.84 ± 0.21
IL10 gene expression level (Sclera fibroblast): 0.56 ± 0.19
IL-6 gene expression level (Sclera fibroblast): 3.02 ± 0.16
MMP2 gene expression level (Sclera fibroblast): 1.79 ± 0.17
NFkB gene expression level (Sclera fibroblast): 4.50 ± 0.27
Tgfb1 gene expression level (Sclera fibroblast): 2.15 ± 0.23
Tnfa gene expression level (Sclera fibroblast): 1.49 ± 0.15
c-Fos and NF-κB expression [2]: stimulated
IL-10 and TNF-α levels [2]: increased
MMP2 and TGF-β expression [2]: upregulation
TGF-β and MMP2 expression [2]: upregulation
Refractive power, BL: left eye before treatment (Syrian hamster): 12.28 ± 0.97 D
Refractive power, BR: right eye before treatment (Syrian hamster): 12.25 ± 0.57 D
Refractive power, FL: left eye after treatment (Syrian hamster): 8.33±0.96 D
Refractive power, FR: right eye after treatment (Syrian hamster): 8.56±0.42 D
Refractive error FL-BL (Syrian hamster): −3.95 ± 0.97 D
Refractive error FR-BR (Syrian hamster): −3.69 ± 0.57 D
Refractive power, FL: left eye after MFD [3]: 7.79±0.88 D
Refractive power, FR: right eye after MFD (occluded eye) [3]: 6.44±0.18 D

peptidoglycan [PGN]
Myopia in the non-MFD eye [1]: induced
Refractive power, BL: left eye before MFD [1]: 11.73 ± 0.25 D
Refractive power, BR: right eye before MFD [1]: 11.48 ± 0.49 D
Refractive error FR-BR [1]: −4.90 ± 0.83 D
Refractive error FL-BL [1]: −5.03 ± 0.43 D
c-Fos and NF-κB expression [2]: stimulated
IL-10 and TNF-α levels [2]: increased
MMP2 and TGF-β expression [2]: upregulation
TGF-β and MMP2 expression [2]: upregulation
Refractive power, BL: left eye before treatment (Syrian hamster): 12.22 ± 0.35 D
Refractive power, BR: right eye before treatment (Syrian hamster): 12.17 ± 1.04 D
Refractive power, FL: left eye after treatment (Syrian hamster): 8.67±0.63 D
Refractive power, FR: right eye after treatment (Syrian hamster): 9.14±1.21 D
Refractive error FL-BL (Syrian hamster): −3.55 ± 0.35 D
Refractive error FR-BR (Syrian hamster): −3.03 ± 1.04 D
Refractive power, FL: left eye after MFD [3]: 6.78±0.63 D
Refractive power, FR: right eye after MFD (occluded eye) [3]: 6.47±0.39 D

O=C(O)Cc1ccccc1Nc1c(Cl)cccc1Cl [diclofenac]
Inhibitory effect on myopia, comparison of concentrations ([4]; 3 mg/ml vs 6 mg/ml): better in the concentration of 3 mg/ml than in 6 mg/ml
Δ Axial length [4, 9]: 1.04 ± 0.39 mm
Δ Refractive error [4, 9]: 5.36 ± 4.05 D
Δ Axial length ([4]; 6 × diclofenac (6 mg/ml solution), right eye, three weeks, mean ± standard error): 1.24 ± 0.55 mm
Effect on myopia process ([4]; diclofenac solution 3 mg/ml and 6 mg/ml): significant inhibitory effect

Oc1ccc(C=Cc2cc(O)cc(O)c2)cc1 [resveratrol]
Expression of phosphorylated Akt and ERK [5]: decrease
TNF-α expression in the retina [6]: follows the same trend as TGF-β
Collagen I protein expression in the sclera ([6]; stitched right eye): recovered
TGF-β expression in the retina ([6]; stitched right eye): reduction effect
Diopter, left eye (mean ± SD) ([7]; 3 mM resveratrol): −0.17 ± 0.24 Diopter
Diopter, right myopic eye (mean ± SD) ([7]; 3 mM resveratrol): −2.42 ± 1.30 Diopter
Diopter, left eye (mean ± SD) ([7]; 30 mM resveratrol): −0.63 ± 0.41 Diopter
Diopter, right myopic eye (mean ± SD) ([7]; 30 mM resveratrol): −2.46 ± 0.65 Diopter
Diopter, left eye (mean ± SD) ([7]; 100 mM resveratrol): −0.25 ± 1.53 Diopter
Diopter, right myopic eye (mean ± SD) ([7]; 100 mM resveratrol): −1.13 ± 1.47 Diopter
Inhibition of myopia, comparison of concentrations ([7]; 100 mM vs 3 mM and 30 mM): most effective
Expression of MCP-1 [8]: decreasing
